pIC50: −log10 of the molar value. Like-named read-outs stand apart in the source and are kept apart here.
How the values were obtained:
[1] = test system: Pseudomonas aeruginosa efflux+ (MB9798), IMP-1; type: cell-based; conditions: concentration restoring susceptibility to imipenem at 2 μg/mL in the presence of a class A, C, D serine β-lactamase inhibitor closely related to relebactam
Method in brief: (§1)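 Microbroth MIC tests in PAO1-background strains with fixed imipenem and/or ceftazidime, usually at the CLSI breakpoint, plus fixed class A/C β-lactamase inhibitor against AmpC. MBL inhibitor titrated; concentration restoring susceptibility recorded and compared as fold difference between efflux+ MB9798 and efflux− MB9799.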

[2] = test system: Klebsiella pneumoniae expressing VIM-1 (IHMA599644); type: cell-based; conditions: with imipenem 1 μg/ml; 95% inhibition of bacterial growth
Method in brief: (§2)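 Imipenem 1 μg/ml + inhibitor; MBL-expressing clinical strains in 1.1×CAMHB, inoculum from saline suspension diluted 1:100; 35° C, 22–24 h; absorbance read-out.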

[3] = test system: Escherichia coli expressing NDM-1 (CLB30005, CLB30016); type: cell-based; conditions: with imipenem 1 μg/ml; 95% inhibition of bacterial growth
Method in brief: as §2

[4] = test system: Serratia marcescens expressing IMP-1 (CL5741); type: cell-based; conditions: with imipenem 1 μg/ml; 95% inhibition of bacterial growth
Method in brief: as §2

NDM-1 = NDM-1 (Klebsiella pneumoniae, UniProt C7C422); test: biochemical; type: biochemical; conditions: CCF2-FA substrate, 1 pM enzyme, 2 hours at 25° C.
Sequence of NDM-1 (C7C422 whole entry, looked up, species assumed): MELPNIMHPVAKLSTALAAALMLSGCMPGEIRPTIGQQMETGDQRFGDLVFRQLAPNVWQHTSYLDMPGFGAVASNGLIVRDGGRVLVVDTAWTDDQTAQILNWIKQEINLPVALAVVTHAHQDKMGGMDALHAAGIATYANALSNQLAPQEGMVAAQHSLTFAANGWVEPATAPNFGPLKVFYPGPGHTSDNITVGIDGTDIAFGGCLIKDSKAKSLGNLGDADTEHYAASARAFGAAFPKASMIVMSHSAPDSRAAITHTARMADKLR
Method in brief: (§3)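 Semi-log dose-response curves, fitted with a 4-parameter model, gave IC50s. The underlying signal was CCF2-FA fluorescence following 2 hours at 25° C with enzyme, substrate and inhibitor combined.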

IMP-1 = IMP-1 (Serratia marcescens, UniProt P52699); test: biochemical; type: biochemical; conditions: CCF2-FA substrate, 2 pM enzyme, 2 hours at 25° C.
Sequence of IMP-1 (P52699 whole entry, looked up, species assumed): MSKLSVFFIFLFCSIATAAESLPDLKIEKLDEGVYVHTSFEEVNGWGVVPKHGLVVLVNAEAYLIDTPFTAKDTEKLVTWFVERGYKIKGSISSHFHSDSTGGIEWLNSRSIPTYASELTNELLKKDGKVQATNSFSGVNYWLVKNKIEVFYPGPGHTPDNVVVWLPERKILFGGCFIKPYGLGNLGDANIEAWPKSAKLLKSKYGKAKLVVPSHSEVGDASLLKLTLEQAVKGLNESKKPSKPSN
Method in brief: as §3

[5] = test system: Pseudomonas aeruginosa MB9798 vs MB9799; conditions: ratio MITC95 PA_9798/MITC95 PA_9799
Method in brief: as §1

[6] = test system: Pseudomonas aeruginosa efflux− (MB9799), IMP-1; type: cell-based; conditions: concentration restoring susceptibility to imipenem at 2 μg/mL in the presence of a class A, C, D serine β-lactamase inhibitor closely related to relebactam
Method in brief: as §1

VIM-1 = VIM-1 (Pseudomonas aeruginosa (strain ATCC 15692 / DSM 22644 / CIP 104116 / JCM 14847 / LMG 12228 / 1C / PRS 101 / PAO1), UniProt A0A0F7KYQ8); test: biochemical; conditions: CCF2-FA substrate, 30 pM enzyme, 2 hours at 25° C.
Method in brief: as §3

[7] = fluorescence assay, read-out: NDM-1 IC50
[8] = fluorescence assay, read-out: IMP-1 IC50
[9] = fluorescence assay, read-out: VIM-1 IC50

SMILES	P. aeruginosa expressing IMP-1, efflux + (MB9798) MITC95 [1] [µM]	Klebsiella pneumoniae expressing VIM-1 (IHMA599644) MITC95 [2] [µM]	Escherichia coli expressing NDM-1 (CLB30016) MITC95 [3] [µM]	Serratia marcescens expressing IMP-1 (CL5741) MITC95 [4] [µM]	pIC50 (NDM-1; [7])	pIC50 (IMP-1; [8])	Efflux ratio [5]	P. aeruginosa expressing IMP-1, efflux − (MB9799) MITC95 [6] [µM]	pIC50 (VIM-1; [9])	pIC50 (VIM-1; VIM-1 IC50, fluorescence assay)	pIC50 (NDM-1; NDM-1 IC50, fluorescence assay)	pIC50 (IMP-1; IMP-1 IC50, fluorescence assay)
Nc1nc2c(-c3ccc(S(=O)(=O)N[C@@H]4CCNC4)c(S(N)(=O)=O)c3-c3nnn[nH]3)cccc2s1 [Example 63, 4-(2-amino-1,3-benzothiazol-4-yl)-N1-[(3R)-pyrrolidin-3-yl]-3-(1H-tetrazol-5-yl)benzene-1,2-disulfonamide]	0.7813	1.563	1.563	1.563	10.35	9.51	0.50	1.563	9.59			
CN(C1CCCNC1)S(=O)(=O)c1ccc(-c2cccc3sc(N)nc23)c(-c2nnn[nH]2)c1S(N)(=O)=O (stereo not drawn) [Example 64, 4-(2-amino-1,3-benzothiazol-4-yl)-N1-methyl-N1-piperidin-3-yl-3-(1H-tetrazol-5-yl)benzene-1,2-disulfonamide]	3.125	12.5	12.5	1.563	8.83	8.67	2.00	1.563		8.24		
CN([C@H]1CCNC1)S(=O)(=O)c1ccc(-c2cccc3sc(N)nc23)c(-c2nnn[nH]2)c1S(N)(=O)=O [Example 65, 4-(2-amino-1,3-benzothiazol-4-yl)-N1-methyl-N1-[(3S)-pyrrolidin-3-yl]-3-(1H-tetrazol-5-yl)benzene-1,2-disulfonamide]	3.125	3.125	6.25	3.125	9.33	9.15	2.00	1.563	8.84			
Nc1nc2c(-c3ccc(S(=O)(=O)N4CCC[C@H](N)C4)c(S(N)(=O)=O)c3-c3nnn[nH]3)cccc2s1 [Example 66, 3-(2-amino-1,3-benzothiazol-4-yl)-6-{[(3S)-3-aminopiperidin-1-yl]sulfonyl}-2-(1H-tetrazol-5-yl)benzenesulfonamide]	3.125	6.25	3.125	3.125	8.96	8.65	2.00	1.563	8.40			
Nc1nc2c(-c3ccc(S(=O)(=O)N[C@H]4CCCNC4)c(S(N)(=O)=O)c3-c3nnn[nH]3)cccc2s1 [Example 67, 4-(2-amino-1,3-benzothiazol-4-yl)-N1-[(3S)-piperidin-3-yl]-3-(1H-tetrazol-5-yl)benzene-1,2-disulfonamide]	1.563	3.125	1.563	1.563	10.39	9.31	1.00	1.563		9.57		
Nc1nc2c(-c3ccc(S(=O)(=O)N4CCC[C@@H](N)C4)c(S(N)(=O)=O)c3-c3nnn[nH]3)cccc2s1 [Example 68, 3-(2-amino-1,3-benzothiazol-4-yl)-6-{[(3R)-3-aminopiperidin-1-yl]sulfonyl}-2-(1H-tetrazol-5-yl)benzenesulfonamide]	3.125	3.125	3.125	1.563			2.00	1.563	8.43		9.00	8.71
Nc1nc2c(-c3ccc(S(=O)(=O)N[C@@H]4CCCNC4)c(S(N)(=O)=O)c3-c3nnn[nH]3)cccc2s1 [Example 69, 4-(2-amino-1,3-benzothiazol-4-yl)-N1-[(3R)-piperidin-3-yl]-3-(1H-tetrazol-5-yl)benzene-1,2-disulfonamide]	0.7813	3.125	0.7813	1.563	10.49	9.73	0.50	1.563		9.73		
NC[C@@H]1CCN(S(=O)(=O)c2ccc(-c3cccc4sc(N)nc34)c(-c3nnn[nH]3)c2S(N)(=O)=O)C1 [Example 70, 3-(2-amino-1,3-benzothiazol-4-yl)-6-{[(3S)-3-(aminomethyl)pyrrolidin-1-yl]sulfonyl}-2-(1H-tetrazol-5-yl)benzenesulfonamide]	3.125	12.5	6.25	3.125	8.71	8.64	1.00	3.125		8.55		
Nc1nc2c(-c3ccc(S(=O)(=O)NC[C@H]4CCNC4)c(S(N)(=O)=O)c3-c3nnn[nH]3)cccc2s1 [Example 73, 4-(2-amino-1,3-benzothiazol-4-yl)-N^1-[(3S)-pyrrolidin-3-ylmethyl]-3-(1H-tetrazol-5-yl)benzene-1,2-disulfonamide]	0.7813	3.125	1.563	1.563	10.48		0.50	1.563		9.90		9.80
NC[C@H]1CCN(S(=O)(=O)c2ccc(-c3cccc4sc(N)nc34)c(-c3nnn[nH]3)c2S(N)(=O)=O)C1 [Example 74, 3-(2-amino-1,3-benzothiazol-4-yl)-6-{[(3R)-3-(aminomethyl)pyrrolidin-1-yl]sulfonyl}-2-(1H-tetrazol-5-yl)benzenesulfonamide]	1.172	3.125	2.344	2.344	9.19		1.00	1.172		8.94		9.08

Source: patent US10221163B2 (priority 2015, dated 2019)
